Experimental data as given in patent US6869945B2, “Pyrrolyl-and imidazolyl-acid amide derivatives useful as inhibitors of PDE4 isozymes” (Pfizer Inc, priority 2001, dated 2005).
“Also recorded” adds a separate entry of the source.

What was measured:
[1] = in vivo; cited from earlier work
[2] = cited from earlier work
PDE4 = conditions: catalytic site (Sc); cited from earlier work
[3] = 54 subjects; cited from earlier work
[4] = system: rhinorrhea in the antigen-challenged pig; conditions: cited from earlier work
[5] = system: LPS-stimulated ex vivo TNF release and PHA induced lymphocyte proliferation; conditions: oral dose of 300 mg, cited from earlier work
guinea-pig trachea = conditions: cited from earlier work
[6] = system: guinea-pig macrophage PDE4; conditions: cited from earlier work
[7] = system: dextran sulfate induced colitis; conditions: cited from earlier work; for effects in dextran sulfate induced colitis: rat
[8] = 35 rheumatoid arthritis patients, t.i.d.; cited from earlier work
TNF-α mRNA expression = conditions: mouse, in vivo; cited from earlier work
[9] = system: psoriatic epidermal slices and keratomed psoriatic epidermal slices; conditions: cited from earlier work
epidermal basal cells = conditions: primary culture; cited from earlier work
[10] = in vivo; cited from earlier work; remark: listed apart in the source
[11] = system: endotoxin-induced acute renal failure; conditions: cited from earlier work
[12] = system: human peripheral blood mononuclear cells; conditions: cited from earlier work
[13] = 15 mg twice a day for six weeks; cited from earlier work
[14] = system: isolated pulmonary artery rings; conditions: normal rats and rats with hypoxia-induced pulmonary hypertension; cited from earlier work
[15] = system: croton oil-induced ear inflammation; conditions: mouse; cited from earlier work
[16] = system: collagen II induced arthritis; conditions: 2 mg/kg twice daily for five days before the onset of arthritis; cited from earlier work
[17] = system: experimental allergic encephalomyelitis; conditions: in vivo; cited from earlier work

## Nc1nc2c([nH]1)c(=O)n(CC1CC1)c(=O)n2CC1CC1 [BRL-61,063, cipamfylline]
[1]
  emesis / nausea and vomiting: adverse events of nausea and vomiting

## COc1ccc([C@H](Cc2ccncc2)c2ccccc2)cc1OC1CCCC1 [CDP840]
[2]; patients with bronchial asthma, oral
  late reactions to inhaled allergen / late-phase response: suppression; also recorded: significant inhibition
[2]; treatment of asthma
  adverse events: without any adverse events of nausea or headache
PDE4
  potency at the Sc relative to SB-207,499: significantly higher potency

## Cc1cc2c3c(c1)C(c1ccccc1)=N[C@@H](NC(=O)c1ccncc1)C(=O)N3CC2 [CI-1018]
[3]
  doses at which no adverse events were reported: up to 400 mg

## CC(C)(O)c1ccc(CNC(=O)c2scnc2Oc2ccc3c(c2)OCO3)c(F)c1 [Example 5, 4-(Benzo[1,3]dioxol-5-yloxy)-thiazole-5-carboxylic acid 2-fluoro-4-(1-hydroxy-1-methyl-ethyl)-benzylamide]
other
  melting point: 117 to 118 °C

## CCCC1C(=O)C2=C(C(CC)=NC2C)c2nc(OC)ccc21 [Example D-22888]
[4]; antigen-challenged pig
  rhinorrhea: inhibit rhinorrhea
[4]; pig, in vivo
  anti-allergic effect: strong anti-allergic affect

## CCNc1ncn(Cc2ccc(OC)c(OC3CCCC3)c2)c2nc(C(C)C)nc1-2 [Example V-11294A]
[5]; LPS-stimulated ex vivo TNF release
  reduction of TNF levels: effective
[5]; PHA induced
  reduction of lymphocyte proliferation: effective

## O=S1(=O)CCN(c2nc(NC3CC3)nc(C3CC3)n2)C1 [Formula (0.0.56)]
guinea-pig trachea
  relaxant activity in a guinea-pig trachea model: potent relaxant agents

## CC1CC1c1nc(NC2CC2)nc(N2CCOCC2)n1 (centres unmarked) [Formula (0.0.57)]
guinea-pig trachea
  relaxant activity in a guinea-pig trachea model: potent relaxant agents

## COc1ccc(S(=O)(=O)C(CCCCc2ccccc2)CC(=O)NO)cc1OC (centres unmarked) [Formula (0.1.36)]
[6]
  IC50: 1 nM

## COc1ccc(S(=O)(=O)C(CCCCc2ccccc2)C(C)C(=O)NO)cc1 (centres unmarked) [Formula (0.1.37)]
[6]
  IC50: 30 nM

## CCCn1c(=O)c2[nH]cnc2n(-c2ccc(Cl)cc2)c1=O [LAS31025]
[7]
  effects in dextran sulfate induced colitis: beneficial effects comparable to prednisolone

## COc1ccc(C(=O)Nc2c(Cl)cncc2Cl)cc1OC1CCCC1 [RP73401]
[8]
  clinical effect, with reduction in C-reactive protein and IL-6 serum levels: positive trend towards clinical improvement
TNF-α mRNA expression
  TNF-α mRNA expression at the pannus/cartilage interface of paw joints: decrease

## COc1ccc(CC2CNC(=O)N2)cc1OC1CCCC1 (centres unmarked) [Ro 20-1724]
[9]
  cAMP concentrations over controls: very marked elevation
Epidermal basal cells
  increase in cAMP concentrations: three-fold increase
[10]
  adverse effects: without adverse systemic or cutaneous effects
  psoriatic lesions compared with vehicle: improve psoriatic lesions

## COc1ccc(CC2CNC(=O)N2)cc1OC1CCCC1 (centres unmarked) [Ro-201724]
[11]; post-treatment at 10 μg/kg/min
  endotoxin-induced increases in renal vascular resistance and decreases in renal blood flow and glomerular filtration rate: markedly attenuates
  urinary cAMP excretion: significantly increases
[11]; rat, in vivo
  survival rates for endotoxin-treated rats: improve survival rates
[12]
  proliferation of HPBM from normal patients and subjects with atopic dermatitis: concentration-related inhibition

## COc1ccc([C@]2(C#N)CC[C@@H](C(=O)O)CC2)cc1OC1CCCC1 [SB-207,499]
[13]
  FEV1 and forced vital capacity (FVC): increrases

## CCCn1c(=O)c2[nH]cnc2n(-c2ccc(Cl)cc2)c1=O [arofylline]
[7]; in vivo
  effects in models of colitis in the rat: beneficial effects

## CCCCn1c(=O)c2c(ncn2CC(C)=O)n(CCCC)c1=O [denbufylline]
[12]
  proliferation of HPBM from normal patients and subjects with atopic dermatitis: concentration-related inhibition

## Cc1[nH]c(=O)c(C#N)cc1-c1ccncc1 [milrinone]
[14]
  effect on relaxation of pulmonary artery rings: same effect

## COc1ccc(C2CNC(=O)C2)cc1OC1CCCC1 (centres unmarked) [rolipram]
[15]
  lowest topical dose inhibiting croton oil-induced ear inflammation: 0.03 mg per ear
[12]
  proliferation of HPBM from normal patients and subjects with atopic dermatitis: concentration-related inhibition
[16]
  appearance of arthritic symptoms: significantly delayed
[14]
  effect on relaxation of pulmonary artery rings: potentiates the relaxant activities of isoproterenol and forskolin
[7]
  effects in dextran sulfate induced colitis: beneficial effects comparable to prednisolone
[17]
  clinical signs and MRI imaging: suppress the appearance of clinical signs and abolish abnormalities in MRI imaging
